Test results as given in patent US20090042726A1, “Novel Herbicides” (SYNGENTA LIMITED, priority 2005, published 2009).

System: Monocotyledonous and dicotyledonous test plants
Assay: Herbicidal action, application pre-emergence (Example B1)
Format: in vivo
Design: key: 10=total damage to plant; 0=no damage to plant
Details: 1000 g/ha, evaluated after 9 or 13 days; for AGSTE herbicidal action (damage score 0-10): Agrostis-tenius; for AMARE herbicidal action (damage score 0-10): Amaranthus retroflexus; for DIGSA herbicidal action (damage score 0-10): Digitaria sanguinalis; for POATR herbicidal action (damage score 0-10): Poa trivialis; for SETIT herbicidal action (damage score 0-10): Setaria italica
Protocol: Monocotyledonous and dicotyledonous test plants were sown in sterilised standard soil in seed trays each having 96 cells. After one day (pre-emergence) under controlled conditions in a climatic chamber (cultivation at 23/17° C., day/night; 13 hours light; 50-60% humidity; after application at 24/19° C., day/night), the plants were treated with an aqueous spray solution of 1000 mg/l of the active ingredient used (including 10% DMSO as solvent). The plants were grown on in the climatic chamber until the test was evaluated (10=total damage to plant, 0=no damage to plant) after 9 or 13 days.

Compound | AGSTE herbicidal action (damage score 0-10) | AMARE herbicidal action (damage score 0-10) | DIGSA herbicidal action (damage score 0-10) | POATR herbicidal action (damage score 0-10) | SETIT herbicidal action (damage score 0-10)
CCn1ncc(C[S+]([O-])C2=NOC(C)(C)C2F)n1 (mixture of isomers) [7.35] | 10 | 8 | 9 | 9 | 
Cc1nc(C[S+]([O-])C2=NOC(C)(C)C2F)n(C)n1 (single isomer, unassigned) [8.03] | 10 | 0 | 9 | 8 | 
Cn1nc(C(F)(F)F)c(CS(=O)(=O)C2=NOC(C)(C)C2Br)c1OC(F)F (stereo not shown) [Compound No. 2.06, 4-Bromo-3-(5-difluoromethoxy-1-methyl-3-trifluoromethyl-1H-pyrazol-4-ylmethylsulfonyl)-5,5-dimethyl-4,5-dihydro-isoxazole] | 10 | 7 | 8 | 9 | 7
Cn1nc(C(F)(F)F)c(C[S+]([O-])C2=NOC(C)(C)C2F)c1OC(F)F (single isomer, unassigned) [2.25] | 10 | 10 | 10 | 10 | 10
C#CCn1cc(CS(=O)(=O)C2=NOC(C)(C)C2F)c(C(F)(F)F)n1 (stereo not shown) [2.50] | 10 | 10 | 10 | 10 | 
COCCOc1c(CS(=O)(=O)C2=NOC(C)(C)C2F)c(C(F)(F)F)nn1C (stereo not shown) [2.59] | 10 | 10 | 10 | 10 | 
Cc1nn(C)c(OCC(F)(F)F)c1CS(=O)(=O)C1=NOC(C)(C)C1F (stereo not shown) [2.63] | 10 | 10 | 8 | 10 | 
CC1(C)ON=C(SCc2cccnc2Cl)C1F (stereo not shown) [Compound No. 3.04] | 8 | 2 | 8 | 7 | 
CC(C)n1nc(CS(=O)(=O)C2=NOC(C)(C)C2F)c(C(F)(F)F)n1 (stereo not shown) [7.27] | 9 | 1 | 10 | 0 | 
CC1(C)ON=C(S(=O)(=O)C(F)(F)c2ccccc2OC(F)(F)F)C1F (stereo not shown) [Compound No. 1.12] | 10 | 9 | 9 | 0 | 8
CC1(C)ON=C(S(=O)(=O)C(Cl)c2ccccc2OC(F)(F)F)C1F (stereo not shown) [Compound No. 1.13, 3-[chloro-(2-trifluoromethoxy-phenyl)-methanesulfonyl]-4-fluoro-5,5-dimethyl-4,5-dihydro-isoxazole] | 10 | 9 | 9 | 10 | 9
Cn1nc(C(F)(F)F)c(CSC2=NOC(C)(C)C2F)c1OC(F)F (stereo not shown) [Compound No. 2.22] | 10 | 9 | 9 | 9 | 9
CC(c1c(C(F)(F)F)nn(C)c1OC(F)F)S(=O)(=O)C1=NOC(C)(C)C1F (mixture of isomers) [Compound No. 2.27] | 10 | 10 | 10 | 10 | 10
CC(C)n1nc(C[S+]([O-])C2=NOC(C)(C)C2F)c(C(F)(F)F)n1 (single isomer, unassigned) [7.26] | 9 | 0 | 5 | 6 | 
Cn1nc(C(F)(F)F)c(C[S+]([O-])C2=NOC(C)(C)C2(Cl)Cl)c1OCC(F)(F)F (stereo not shown) [2.20] | 5 | 4 | 9 | 8 | 7
Cn1cc(C[S+]([O-])C2=NOC(C)(C)C2F)c(C(F)(F)F)n1 (mixture of isomers) [2.33] | 10 | 6 | 9 | 9 | 9

Compound | AGSTE herbicidal action (damage score 0-10) | AMARE herbicidal action (damage score 0-10) | DIGSA herbicidal action (damage score 0-10) | POATR herbicidal action (damage score 0-10) | SETIT herbicidal action (damage score 0-10)
Cn1nc(C(F)(F)F)c(C[S+]([O-])C2=NOC(C)(C)C2Cl)c1OC(F)F (mixture of isomers) [2.17] | 10 | 6 | 10 | 10 | 9
Cn1nc(C(F)(F)F)c(Cl)c1CSC1=NOC(C)(C)C1F (stereo not shown) [Compound No. 6.05] | 10 | 0 | 5 | 4 | 
Cn1nc(C(F)(F)F)c(C[S+]([O-])C2=NOC(C)(C)C2F)c1OCC(F)(F)F (single isomer, unassigned) [2.10] | 10 | 8 | 10 | 10 | 9
Cc1nn(C)nc1C[S+]([O-])C1=NOC(C)(C)C1F (single isomer, unassigned) [7.02] | 10 | 0 | 9 | 10 | 9
Cn1nc(C(F)(F)F)c(CSC2=NOC(C)(C)C2F)c1F (stereo not shown) [Compound No. 2.54] | 10 | 9 | 6 | 10 | 
CC(Oc1c(CS(=O)(=O)C2=NOC(C)(C)C2F)c(C(F)(F)F)nn1C)C(F)(F)F (mixture of isomers) [2.37] | 10 | 8 | 9 | 10 | 9
C=CCn1cc(CS(=O)(=O)C2=NOC(C)(C)C2F)c(C(F)(F)F)n1 (stereo not shown) [2.53] | 10 | 10 | 9 | 10 | 
CCc1nn(C)nc1C[S+]([O-])C1=NOC(C)(C)C1F (mixture of isomers) [7.32] | 10 | 7 | 9 | 9 | 
CC1(C)ON=C(SCc2nn(CC3CCC3)nc2C(F)(F)F)C1F (stereo not shown) [Compound No. 7.15] | 8 | 9 | 9 | 0 | 
C=CCn1cc(C[S+]([O-])C2=NOC(C)(C)C2F)c(C(F)(F)F)n1 (mixture of isomers) [2.52] | 10 | 9 | 9 | 9 | 
CC1(C)ON=C(S(=O)(=O)Cc2c(F)cccc2F)C1F (stereo not shown) [1.17] | 10 | 10 | 8 | 10 | 8
Cn1nc(C(F)(F)F)c(CS(=O)(=O)C2=NOC(C)(C)C2F)c1OCC(F)(F)F (stereo not shown) [2.11] | 10 | 10 | 9 | 10 | 4
Cn1nc(OCC(F)(F)F)c(C[S+]([O-])C2=NOC(C)(C)C2F)c1C(F)(F)F (single isomer, unassigned) [2.43] | 0 | 8 | 9 | 10 | 8
Cn1nc(OC(F)F)cc1C[S+]([O-])C1=NOC(C)(C)C1F (mixture of isomers) [6.09] | 10 | 10 | 9 | 9 | 
CC1(C)ON=C([S+]([O-])Cc2nn(C3CCCC3)nc2C(F)(F)F)C1F (single isomer, unassigned) [7.12] | 10 | 10 | 9 | 10 | 
